Series [1] concerns the target T1, 5-hydroxytryptamine receptor 6 (Homo sapiens, UniProt P50406). Description: Inhibition of human recombinant 5-HT6 receptor expressed in human HEK293 cells assessed as inhibition of serotonin-induced cAMP accumulation. Format: functional, cell-based. A general note: Cyclic AMP is a second messenger, typically raised through Gs and lowered through Gi signalling.
Series [2] addresses T2, 5-hydroxytryptamine receptor 2C (Homo sapiens) (UniProt P28335).
T2 sequence (whole entry): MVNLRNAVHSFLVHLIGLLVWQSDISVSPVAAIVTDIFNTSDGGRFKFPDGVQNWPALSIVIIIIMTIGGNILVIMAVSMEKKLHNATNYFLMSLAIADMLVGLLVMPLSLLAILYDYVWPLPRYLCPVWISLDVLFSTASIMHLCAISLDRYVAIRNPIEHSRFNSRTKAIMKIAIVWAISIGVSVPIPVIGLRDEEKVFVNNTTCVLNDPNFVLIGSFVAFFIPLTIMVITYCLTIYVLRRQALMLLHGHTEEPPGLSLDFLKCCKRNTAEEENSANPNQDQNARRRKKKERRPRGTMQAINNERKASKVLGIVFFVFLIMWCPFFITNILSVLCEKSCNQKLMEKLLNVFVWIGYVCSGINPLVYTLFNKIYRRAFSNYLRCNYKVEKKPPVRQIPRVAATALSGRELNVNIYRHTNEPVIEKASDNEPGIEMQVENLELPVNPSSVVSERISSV
Description: Inhibition of serotonin 5-HT2C receptor at 1 uM by ligand displacement assay.

Series [3] addresses T1, 5-hydroxytryptamine receptor 6. Description: Antagonist activity at human recombinant 5-HT6 receptor expressed in human HEK293 cells assessed as inhibition of serotonin-induced cAMP accumulation. The conditions noted are these: read-out: pA2 (converted). Format: functional, cell-based.
For series [4] the target is unchanged. The series is described as follows: Partial agonist activity at human recombinant 5-HT6 receptor expressed in human HEK293 cells assessed as inhibition of serotonin-induced cAMP accumulation. It is filed as functional, cell-based.
Series [5] deals with Alpha-2A adrenergic receptor (Homo sapiens) (UniProt P08913). Description: Inhibition of adrenergic alpha2 receptor at 1 uM by ligand displacement assay.
Series [6] can be described thus: Inhibition of adrenergic alpha1 receptor at 1 uM by ligand displacement assay.
Series [7] has as its target Muscarinic acetylcholine receptor M2 (Homo sapiens) (UniProt P08172). The series is described as follows: Inhibition of muscarinic M2 receptor at 1 uM by ligand displacement assay.
Series [8] deals with 5-hydroxytryptamine receptor 1A (Homo sapiens) (UniProt P08908). The series is described as follows: Inhibition of serotonin 5-HT1A receptor at 1 uM by ligand displacement assay.
The target of series [9] is 5-hydroxytryptamine receptor 7 (Homo sapiens) (UniProt P34969). The series is described as follows: Inhibition of serotonin 5-HT7 receptor at 1 uM by ligand displacement assay.
Series [10] has as its target Histamine H1 receptor (Homo sapiens) (UniProt P35367). Description: Inhibition of histamine H1 receptor at 1 uM by ligand displacement assay.
Series [11] concerns the target 5-hydroxytryptamine receptor 4 (Homo sapiens) (UniProt Q13639). Description: Inhibition of serotonin 5-HT4 receptor at 1 uM by ligand displacement assay.
Series [12] can be described thus: Inhibition of dopamine D4.2 receptor at 1 uM by ligand displacement assay.
The target in series [13] is D(2) dopamine receptor (Homo sapiens) (UniProt P14416). Description: Inhibition of dopamine D2S receptor at 1 uM by ligand displacement assay.
The target of series [14] is 5-hydroxytryptamine receptor 2B (Homo sapiens) (UniProt P41595). The series is described as follows: Displacement of[3H]lysergic acid […] 5-HT2B receptor at 1 uM by ligand displacement assay.
Series [15] concerns the target D(1A) dopamine receptor (Homo sapiens) (UniProt P21728). The series is described as follows: Inhibition of dopamine D1 receptor at 1 uM by ligand displacement assay.
Series [16] concerns the target Muscarinic acetylcholine receptor M3 (Homo sapiens) (UniProt P20309). The series is described as follows: Inhibition of muscarinic M3 receptor at 1 uM by ligand displacement assay.
In series [17] the target is D(3) dopamine receptor (Homo sapiens) (UniProt P35462). Description: Inhibition of dopamine D3 receptor at 1 uM by ligand displacement assay.
Series [18] concerns the target Muscarinic acetylcholine receptor M4 (Homo sapiens) (UniProt P08173). Description: Inhibition of muscarinic M4 receptor at 1 uM by ligand displacement assay.
Series [19] addresses Adenosine receptor A2b (Homo sapiens) (UniProt P29275). Description: Inhibition of adenosine A2B receptor at 1 uM by ligand displacement assay.
In series [20] the target is 5-hydroxytryptamine receptor 2A (Homo sapiens) (UniProt P28223). The series is described as follows: Inhibition of serotonin 5-HT2A receptor at 1 uM by ligand displacement assay.
Series [21] is described as follows: Inhibition of dopamine D4.7 receptor at 1 uM by ligand displacement assay.
The target of series [22] is Adenosine receptor A3 (Homo sapiens) (UniProt P0DMS8). Description: Inhibition of adenosine A3 receptor at 1 uM by ligand displacement assay.
In series [23] the target is T1, 5-hydroxytryptamine receptor 6. Description: Displacement of[3H]lysergic acid […] from 5-HT6 receptor at 1 uM by ligand displacement assay.
The target in series [24] is Adenosine receptor A2a (Homo sapiens) (UniProt P29274). The series is described as follows: Inhibition of adenosine A2A receptor at 1 uM by ligand displacement assay.
Series [25] concerns the target Histamine H2 receptor (Homo sapiens) (UniProt P25021). Description: Inhibition of histamine H2 receptor at 1 uM by ligand displacement assay.
Series [26] addresses 5-hydroxytryptamine receptor 5A (Homo sapiens) (UniProt P47898). The series is described as follows: Inhibition of serotonin 5-HT5A receptor at 1 uM by ligand displacement assay.
Series [27] has as its target Voltage-gated inwardly rectifying potassium channel KCNH2 (Homo sapiens, UniProt Q12809). The series is described as follows: Inhibition of human Erg at 1 uM by ligand displacement assay.
Series [28] is described as follows: Inhibition of adrenergic beta receptor at 1 uM by ligand displacement assay.
Series [29] has as its target Adenosine receptor A1 (Homo sapiens) (UniProt P30542). The series is described as follows: Inhibition of adenosine A1 receptor at 1 uM by ligand displacement assay.
The target in series [30] is 5-hydroxytryptamine receptor 3A (Homo sapiens) (UniProt P46098). Description: Inhibition of serotonin 5-HT3 receptor at 1 uM by ligand displacement assay.
Series [31] concerns the target Histamine H3 receptor (Homo sapiens) (UniProt Q9Y5N1). Description: Inhibition of histamine H3 receptor at 1 uM by ligand displacement assay.
Series [32] concerns the target D(1B) dopamine receptor (Homo sapiens) (UniProt P21918). Description: Inhibition of dopamine D5 receptor at 1 uM by ligand displacement assay.
Series [33] concerns the target 5-hydroxytryptamine receptor 1B (Homo sapiens) (UniProt P28222). Description: Inhibition of serotonin 5-HT1B receptor at 1 uM by ligand displacement assay.
Series [34] deals with Muscarinic acetylcholine receptor M1 (Homo sapiens) (UniProt P11229). The series is described as follows: Inhibition of muscarinic M1 receptor at 1 uM by ligand displacement assay.
The target in series [35] is D(4) dopamine receptor (Homo sapiens) (UniProt P21917). The series is described as follows: Inhibition of dopamine D4.4 receptor at 1 uM by ligand displacement assay.

The source made the active and inactive calls. The calls are words filed in the database; no cut-off is given here.

What is called inhibition is how much of the control response was suppressed.

T1 sequence (P50406 whole entry): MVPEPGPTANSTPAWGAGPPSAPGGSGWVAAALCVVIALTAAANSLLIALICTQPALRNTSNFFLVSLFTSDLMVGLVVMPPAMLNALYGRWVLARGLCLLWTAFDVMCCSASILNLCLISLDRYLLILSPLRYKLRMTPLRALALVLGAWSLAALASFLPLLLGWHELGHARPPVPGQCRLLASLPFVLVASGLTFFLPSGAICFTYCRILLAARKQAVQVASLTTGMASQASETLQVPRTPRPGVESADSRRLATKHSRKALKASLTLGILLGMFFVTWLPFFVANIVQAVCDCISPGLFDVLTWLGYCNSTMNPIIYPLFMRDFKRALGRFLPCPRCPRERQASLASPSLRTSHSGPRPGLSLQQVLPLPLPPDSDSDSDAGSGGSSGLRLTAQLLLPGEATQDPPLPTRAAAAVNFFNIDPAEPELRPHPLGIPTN
5-hydroxytryptamine receptor 7 (Homo sapiens), sequence (P34969 whole entry): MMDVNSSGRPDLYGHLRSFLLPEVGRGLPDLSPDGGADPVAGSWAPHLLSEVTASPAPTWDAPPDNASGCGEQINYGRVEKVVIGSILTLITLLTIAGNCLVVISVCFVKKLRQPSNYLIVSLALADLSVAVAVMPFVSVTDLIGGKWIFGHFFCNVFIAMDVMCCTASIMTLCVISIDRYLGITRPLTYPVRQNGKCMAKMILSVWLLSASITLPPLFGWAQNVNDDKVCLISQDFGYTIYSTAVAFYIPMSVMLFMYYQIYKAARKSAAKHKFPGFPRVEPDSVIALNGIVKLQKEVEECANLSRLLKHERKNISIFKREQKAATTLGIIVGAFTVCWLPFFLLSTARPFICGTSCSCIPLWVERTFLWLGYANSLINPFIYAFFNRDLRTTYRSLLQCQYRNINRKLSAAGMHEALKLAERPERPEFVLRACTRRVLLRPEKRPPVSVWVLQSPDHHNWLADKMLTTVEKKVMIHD
D(2) dopamine receptor (Homo sapiens), sequence (P14416 whole entry): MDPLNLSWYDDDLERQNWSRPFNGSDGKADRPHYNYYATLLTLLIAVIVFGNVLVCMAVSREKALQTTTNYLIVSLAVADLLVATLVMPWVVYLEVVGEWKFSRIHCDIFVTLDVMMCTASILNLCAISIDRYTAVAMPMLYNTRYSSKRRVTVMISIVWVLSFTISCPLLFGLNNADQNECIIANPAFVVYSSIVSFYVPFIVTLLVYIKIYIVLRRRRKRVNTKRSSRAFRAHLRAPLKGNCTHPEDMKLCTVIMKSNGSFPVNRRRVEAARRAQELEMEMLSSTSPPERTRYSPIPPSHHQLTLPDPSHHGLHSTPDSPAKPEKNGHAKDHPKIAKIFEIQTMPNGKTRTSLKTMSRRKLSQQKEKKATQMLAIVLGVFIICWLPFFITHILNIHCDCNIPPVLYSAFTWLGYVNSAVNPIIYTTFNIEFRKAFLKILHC
D(1B) dopamine receptor (Homo sapiens), sequence (P21918 whole entry): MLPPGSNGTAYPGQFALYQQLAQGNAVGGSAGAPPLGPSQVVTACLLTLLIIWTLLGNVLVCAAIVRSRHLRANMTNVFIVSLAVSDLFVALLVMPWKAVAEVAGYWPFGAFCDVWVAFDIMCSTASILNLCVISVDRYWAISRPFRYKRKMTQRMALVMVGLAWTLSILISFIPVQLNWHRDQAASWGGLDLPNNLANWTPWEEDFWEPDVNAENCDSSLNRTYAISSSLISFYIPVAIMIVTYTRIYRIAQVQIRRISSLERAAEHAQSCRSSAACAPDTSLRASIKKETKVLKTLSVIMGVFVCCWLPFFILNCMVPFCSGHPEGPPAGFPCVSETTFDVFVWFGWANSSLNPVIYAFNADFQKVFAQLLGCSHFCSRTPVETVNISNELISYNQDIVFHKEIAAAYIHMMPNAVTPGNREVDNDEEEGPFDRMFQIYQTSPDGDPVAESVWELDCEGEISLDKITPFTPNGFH
5-hydroxytryptamine receptor 5A (Homo sapiens), sequence (P47898 whole entry): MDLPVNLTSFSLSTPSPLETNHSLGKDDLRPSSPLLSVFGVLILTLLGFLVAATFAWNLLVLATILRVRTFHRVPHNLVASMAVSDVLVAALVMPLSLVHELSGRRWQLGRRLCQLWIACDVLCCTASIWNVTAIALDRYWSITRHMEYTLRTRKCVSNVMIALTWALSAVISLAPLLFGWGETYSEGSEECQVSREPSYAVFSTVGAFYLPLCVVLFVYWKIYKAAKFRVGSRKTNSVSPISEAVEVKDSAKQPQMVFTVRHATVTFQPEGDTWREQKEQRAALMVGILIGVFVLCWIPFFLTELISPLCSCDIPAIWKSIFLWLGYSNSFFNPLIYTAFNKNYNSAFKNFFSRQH
Histamine H1 receptor (Homo sapiens), sequence (P35367 whole entry): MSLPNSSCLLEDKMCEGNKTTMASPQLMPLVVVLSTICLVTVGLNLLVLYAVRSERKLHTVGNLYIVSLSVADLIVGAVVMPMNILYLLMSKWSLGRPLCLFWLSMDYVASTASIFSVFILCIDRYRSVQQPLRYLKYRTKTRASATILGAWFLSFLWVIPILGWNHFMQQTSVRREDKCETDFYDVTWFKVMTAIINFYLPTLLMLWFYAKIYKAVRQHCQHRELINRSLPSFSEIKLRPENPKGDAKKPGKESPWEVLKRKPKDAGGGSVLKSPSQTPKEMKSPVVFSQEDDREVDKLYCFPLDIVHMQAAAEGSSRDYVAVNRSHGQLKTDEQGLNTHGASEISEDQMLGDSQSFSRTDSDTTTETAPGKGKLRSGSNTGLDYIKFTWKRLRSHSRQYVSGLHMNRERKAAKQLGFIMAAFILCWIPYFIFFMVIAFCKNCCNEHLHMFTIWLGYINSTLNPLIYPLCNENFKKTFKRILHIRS
Muscarinic acetylcholine receptor M3 (Homo sapiens), sequence (P20309 whole entry, looked up): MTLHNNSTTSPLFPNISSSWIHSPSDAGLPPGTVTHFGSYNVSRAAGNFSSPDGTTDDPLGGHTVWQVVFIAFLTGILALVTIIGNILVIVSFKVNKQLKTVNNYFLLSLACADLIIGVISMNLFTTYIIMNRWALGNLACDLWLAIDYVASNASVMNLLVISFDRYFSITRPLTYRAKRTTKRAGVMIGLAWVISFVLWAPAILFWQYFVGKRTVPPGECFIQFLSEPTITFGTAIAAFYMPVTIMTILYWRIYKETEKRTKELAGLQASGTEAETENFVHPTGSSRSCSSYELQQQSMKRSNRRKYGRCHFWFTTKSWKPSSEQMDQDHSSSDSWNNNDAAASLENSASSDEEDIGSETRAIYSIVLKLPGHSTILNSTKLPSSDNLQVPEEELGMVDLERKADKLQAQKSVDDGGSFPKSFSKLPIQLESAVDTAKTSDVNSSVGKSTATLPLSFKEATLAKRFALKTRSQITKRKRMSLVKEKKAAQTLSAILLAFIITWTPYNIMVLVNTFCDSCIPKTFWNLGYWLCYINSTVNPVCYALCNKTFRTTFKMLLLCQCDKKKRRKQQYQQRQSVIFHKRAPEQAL
Muscarinic acetylcholine receptor M1 (Homo sapiens), sequence (P11229 whole entry): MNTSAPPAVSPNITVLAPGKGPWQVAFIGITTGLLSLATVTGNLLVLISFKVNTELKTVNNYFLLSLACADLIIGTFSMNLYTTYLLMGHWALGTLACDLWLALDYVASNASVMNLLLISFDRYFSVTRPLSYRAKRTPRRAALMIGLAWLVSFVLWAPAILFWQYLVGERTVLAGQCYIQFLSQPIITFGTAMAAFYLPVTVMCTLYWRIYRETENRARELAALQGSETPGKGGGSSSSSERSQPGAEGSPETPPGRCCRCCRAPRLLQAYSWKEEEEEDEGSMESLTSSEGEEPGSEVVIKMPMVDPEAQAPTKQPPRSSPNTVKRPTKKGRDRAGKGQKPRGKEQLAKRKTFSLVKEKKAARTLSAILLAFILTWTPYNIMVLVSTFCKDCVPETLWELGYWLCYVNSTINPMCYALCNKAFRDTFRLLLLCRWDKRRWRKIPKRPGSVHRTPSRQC
Adenosine receptor A1 (Homo sapiens), sequence (P30542 whole entry): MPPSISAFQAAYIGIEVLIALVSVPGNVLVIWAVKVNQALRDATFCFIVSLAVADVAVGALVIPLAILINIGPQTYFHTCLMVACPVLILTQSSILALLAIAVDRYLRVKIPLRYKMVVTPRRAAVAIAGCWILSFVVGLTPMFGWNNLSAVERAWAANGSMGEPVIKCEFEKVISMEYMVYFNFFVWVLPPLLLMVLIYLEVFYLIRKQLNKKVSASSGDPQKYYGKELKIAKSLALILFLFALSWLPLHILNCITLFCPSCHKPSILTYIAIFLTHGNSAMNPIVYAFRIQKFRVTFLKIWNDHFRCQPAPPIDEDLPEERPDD
Adenosine receptor A3 (Homo sapiens), sequence (P0DMS8 whole entry): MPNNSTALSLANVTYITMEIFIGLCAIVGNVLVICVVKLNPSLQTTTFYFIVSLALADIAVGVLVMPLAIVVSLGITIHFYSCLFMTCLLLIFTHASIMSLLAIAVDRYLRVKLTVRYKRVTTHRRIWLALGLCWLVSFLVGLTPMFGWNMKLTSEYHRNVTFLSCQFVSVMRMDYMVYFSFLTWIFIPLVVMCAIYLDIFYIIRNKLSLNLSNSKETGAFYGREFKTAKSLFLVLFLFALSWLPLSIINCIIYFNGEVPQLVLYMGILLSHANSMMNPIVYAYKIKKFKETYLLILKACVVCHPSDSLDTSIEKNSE
5-hydroxytryptamine receptor 2A (Homo sapiens), sequence (P28223 whole entry): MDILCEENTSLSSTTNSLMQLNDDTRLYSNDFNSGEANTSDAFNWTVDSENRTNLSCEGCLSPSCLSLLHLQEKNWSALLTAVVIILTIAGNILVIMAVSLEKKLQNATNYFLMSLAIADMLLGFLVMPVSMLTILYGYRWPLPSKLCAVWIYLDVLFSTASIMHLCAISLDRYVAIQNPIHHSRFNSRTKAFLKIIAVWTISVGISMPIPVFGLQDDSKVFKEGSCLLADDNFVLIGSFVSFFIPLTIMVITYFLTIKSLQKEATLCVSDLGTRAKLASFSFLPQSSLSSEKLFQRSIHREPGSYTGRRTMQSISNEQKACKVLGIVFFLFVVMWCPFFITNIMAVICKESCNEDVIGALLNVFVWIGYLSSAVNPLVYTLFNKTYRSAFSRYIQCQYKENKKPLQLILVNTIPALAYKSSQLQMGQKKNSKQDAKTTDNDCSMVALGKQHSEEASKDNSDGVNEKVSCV

As to `CNc1nn2c(N(C)C)cc(C)nc2c1S(=O)(=O)c1ccccc1`, the Ki in series [1] (read-out: pKi (converted)) is 347 pM.
For `CNc1nn2c(C)cc(C)nc2c1S(=O)(=O)c1ccccc1`, the Ki in series [1] (read-out: pKi (converted)) is 263 pM.
With `CNc1nn2c(C)c(CN(C)C)c(C)nc2c1S(=O)(=O)c1ccccc1`, the Ki in series [1] (read-out: pKi (converted)) is 708 pM.
As for `CNc1nn2c(N)c(Cl)c(C)nc2c1S(=O)(=O)c1ccccc1`, in series [1] (read-out: Ki), the Ki came out at 140 pM.
On to `CNc1nn2c(C)c(CN(C)C)c(C)nc2c1S(=O)(=O)c1cccc(Cl)c1`, for which the Ki in series [1] (read-out: pKi (converted)) was 417 pM.
Consider `CNc1nn2c(C)cc(CN)nc2c1S(=O)(=O)c1ccccc1`, for which the inhibition result in series [2] is “inactive”. In series [1] (read-out: pKi (converted)), the Ki was 977 pM.
Regarding `CNc1nn2c(N)cc(C)nc2c1S(=O)(=O)c1cccc(Cl)c1`, in series [1] (read-out: pKi (converted)), the Ki is 219 pM.
As to `CSc1nn2c(N3CCNCC3)c3c(nc2c1S(=O)(=O)c1ccccc1)CCC3`, in series [1] (read-out: Ki), the Ki came to 850 pM.
As to `CNc1nn2c(NCCN(C)C)cc(C)nc2c1S(=O)(=O)c1ccccc1`, the Ki in series [1] (read-out: pKi (converted)) is 69200 pM.
Regarding `CNc1nn2c(N(C)CCN(C)C)cc(C)nc2c1S(=O)(=O)c1ccccc1`, in series [1] (read-out: pKi (converted)), the Ki was 22400 pM.
In the case of `CNc1nn2c(CN)cc(C)nc2c1S(=O)(=O)c1ccccc1`, in [1] (read-out: pKi (converted)), the Ki is 1860 pM.
Take `CNc1nn2c(C)c(NC(C)=O)c(C)nc2c1S(=O)(=O)c1ccccc1`: in series [1] (read-out: pKi (converted)), the Ki is 4680 pM.
Regarding `CNc1nn2c(C)c(N)c(C)nc2c1S(=O)(=O)c1ccccc1`, the Kb in series [3] is 398 pM. Further, in series [2], the inhibition entry was “inactive”. For the same compound, in series [1] (read-out: pKi (converted)), the Ki was 525 pM.
For `CNc1nn2c(N)c(Cl)c(C)nc2c1S(=O)(=O)c1cccc(Cl)c1`, the Ki in series [1] (read-out: pKi (converted)) was 18600 pM.
Consider `CNc1nn2c(NC)cc(C)nc2c1S(=O)(=O)c1ccccc1`, for which the Ki in [1] (read-out: pKi (converted)) is 575 pM.
On to `CNc1nn2c(C)c(CN)c(C)nc2c1S(=O)(=O)c1ccccc1`, for which the Ki in [1] (read-out: pKi (converted)) is 646 pM.
On the same count and under the same terms, then `CNc1nn2c(C)c(CCN(C)C)c(C)nc2c1S(=O)(=O)c1ccccc1`, with 2090 pM; and `CNc1nn2c(C)c(CN(C)C)c(C)nc2c1S(=O)(=O)c1cccc(F)c1`, with 891 pM.
Turning to `CNc1nn2c(NCCCN(C)C)cc(C)nc2c1S(=O)(=O)c1ccccc1`, the Ki in series [1] (read-out: Ki) is 112000 pM.
For the compound `CNc1nn2c(N3CCOCC3)cc(C)nc2c1S(=O)(=O)c1ccccc1`, the Ki in [1] (read-out: pKi (converted)) is 16600 pM.
With `CNc1nn2c(C)c(N(C)C)c(C)nc2c1S(=O)(=O)c1ccccc1`, the inhibition entry in series [2] was “inactive”. The Ki in series [1] (read-out: pKi (converted)) was 209 pM.
In the case of `CNc1nn2c(CCN(C)C)cc(C)nc2c1S(=O)(=O)c1ccccc1`, the Ki in series [4] is 33900 pM.
As for `CNc1nn2c(C)c(CN)c(C)nc2c1S(=O)(=O)c1cccc(Cl)c1`, the Ki in series [1] (read-out: pKi (converted)) was 550 pM.
With `CNc1nn2c(N)cc(C)nc2c1S(=O)(=O)c1ccccc1`, the inhibition entry in series [5], in series [6], in [7], in [8], in series [9] and in [10] was “inactive” each time. In addition, the inhibition result in series [11], in series [12], in series [13], in series [14], in [15] and in series [16] was “inactive” throughout. Further, the inhibition result in [17], in series [18], in series [19], in series [20], in [21] and in series [22] was “inactive” throughout. For the same compound, the inhibition result in series [24], in [25], in series [26], in series [28], in series [29] and in series [30] was “inactive” each time. Also, the inhibition result in [31], in [32], in series [33], in series [34] and in series [35] was “inactive” throughout. The Kb in series [3] is 501 pM. Moreover, the inhibition in series [23] was 100%; in [2], 50%. The “inhibition (INH)” value in series [27] is reported as “Not Active”. Further, the Ki in series [1] (read-out: pKi (converted)) was 302 pM.
`CNc1nn2c(CN(C)C)cc(C)nc2c1S(=O)(=O)c1ccccc1`: the Ki in series [1] (read-out: pKi (converted)) is 1820 pM.
Turning to `CNc1nn2c(CCN)cc(C)nc2c1S(=O)(=O)c1ccccc1`, the Kb in [3] was 3980 pM. Also, the Ki in series [4] was 3090 pM.

The values are drawn from ChEMBL document CHEMBL1921770, “Synthesis and structure-activity relationship (SAR) of (5,7-disubstituted 3-phenylsulfonyl-pyrazolo[1,5-a]pyrimidin-2-yl)-methylamines as potent serotonin 5-HT(6) receptor (5-HT(6)R) antagonists” (J Med Chem, 2011).
